This is an account of results in patent US20240228489A1, “POSITIVE ALLOSTERIC MODULATORS OF THE MUSCARINIC ACETYLCHOLINE RECEPTOR M1” (Vanderbilt University, priority 2021, published 2024).

For assay [1], the target named is T1, human mAChR M1 (Homo sapiens, UniProt P11229).
T1 sequence (P11229 1-460): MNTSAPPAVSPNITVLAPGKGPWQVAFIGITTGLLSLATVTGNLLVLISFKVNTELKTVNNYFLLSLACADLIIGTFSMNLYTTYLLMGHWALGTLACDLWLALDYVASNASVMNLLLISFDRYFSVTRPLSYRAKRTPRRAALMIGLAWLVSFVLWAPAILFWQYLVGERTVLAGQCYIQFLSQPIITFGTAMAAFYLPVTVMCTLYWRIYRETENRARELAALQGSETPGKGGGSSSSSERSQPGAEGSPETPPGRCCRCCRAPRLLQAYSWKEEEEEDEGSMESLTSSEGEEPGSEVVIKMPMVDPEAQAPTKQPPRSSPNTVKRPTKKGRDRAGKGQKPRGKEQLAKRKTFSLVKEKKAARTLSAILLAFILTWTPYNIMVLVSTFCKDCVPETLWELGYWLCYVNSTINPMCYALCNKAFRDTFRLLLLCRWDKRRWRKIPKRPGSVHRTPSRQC
Kind of assay: mAChR M1 cell-based functional assay (calcium mobilization), PAM mode: increase in the EC20 acetylcholine response. Summed up: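 CHO-K1 cells stably expressing hM1, Fluo-4 loaded, read by FDSS calcium flux at 1 Hz. Compound (11-point 1:3 CRC) added at 4 s, EC20 acetylcholine at 144 s, EC80 at 230 s. PAM activity taken as concentration-dependent increase in EC20 ACh response, fitted by four-parameter logistic for EC50/Emax.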
In general terms: A change in cytosolic calcium serves as a functional read-out for many receptors and channels.

For assay [2], the target named is T1, human mAChR M1. The assay is described as follows: mAChR M1 cell-based functional assay (calcium mobilization), agonist mode: compound alone, Emax relative to acetylcholine maximum. As to conditions: for EC50 / Agonist Activity Human M1 EC50: human mAChR M1; for Emax: relative to the maximum for acetylcholine; call rule not given here. Summed up: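 CHO-K1 cells stably expressing hM1 were loaded with Fluo-4 AM, and calcium flux was read as fluorescence ratio. Compound was added alone from an 11-point 1:3 curve, and the agonist response was fitted with a four-parameter logistic. Emax is expressed relative to the acetylcholine maximum.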

What is called EC50 is the concentration that produces a half-maximal response. As usually defined, the Emax is the maximal effect, on the per cent scale that the assay sets.

On to `[2H]C([2H])([2H])c1cc2c(-c3cc(F)c(CN4C(=O)c5cccnc5C4([2H])[2H])c(F)c3)cccn2n1` [Compound 236, 6-(2,6-Difluoro-4-(2-(methyl-d3)pyrazolo[1,5-a]pyridin-4-yl)benzyl)-6,7-dihydro-5H-pyrrolo[3,4-b]pyridin-5-one-7,7-d2], for which, at human mAChR M1 [1], the half-maximal effective concentration (EC50) is 745 nM and the Emax was found to be 76%. Besides, on human mAChR M1 [2], the EC50 was 9560 nM and the Emax worked out at 22%.
Turning to `[2H]C1([2H])c2ncccc2C(=O)N1Cc1c(F)cc(-c2ccc(Cl)c3nn(C)cc23)cc1OCC(C)C` [Compound 215, 6-(4-(7-chloro-2-methyl-2H-indazol-4-yl)-2-fluoro-6-isobutoxybenzyl)-6,7-dihydro-5H-pyrrolo[3,4-b]pyridin-5-one-7,7-d2], on human mAChR M1 [1], the EC50 came to 2380 nM and the Emax worked out at 83%. Besides, at human mAChR M1 [2], the “Agonist Activity Human M1 EC50” value is on record as “Inactive” and the Emax was found to be 2%.
Regarding `[2H]C1([2H])c2ncccc2C(=O)N1Cc1c(F)cc(-c2ccc(OC3CN(C(C)C)C3)c3nn(C)cc23)cc1F` [Compound 180, 6-(2,6-difluoro-4-(7-((1-isopropylazetidin-3-yl)oxy)-2-methyl-2H-indazol-4-yl)benzyl)-6,7-dihydro-5H-pyrrolo[3,4-b]pyridin-5-one-7,7-d2], on human mAChR M1 [1], the EC50 came out at 297 nM and the Emax stood at 85%. For the same molecule, at human mAChR M1 [2], the “Agonist Activity Human M1 EC50” value is reported as “Inactive” and the Emax worked out at 9%.
The matching figures for `[2H]C1([2H])c2ncccc2C(=O)N1Cc1c(F)cc(-c2ccc(OC(F)(F)F)c3nn(C([2H])([2H])[2H])cc23)cc1F` [Compound 104, 6-(2,6-difluoro-4-(2-(methyl-d3)-7-(trifluoromethoxy)-2H-indazol-4-yl)benzyl)-6,7-dihydro-5H-pyrrolo[3,4-b]pyridin-5-one-7,7-d2]: 1170 nM, 69%, “Inactive” and 2%.
`[2H]C1([2H])c2ncccc2C(=O)N1Cc1ccc(-c2cnc3nn(C([2H])([2H])[2H])cc3c2)cc1F` [Compound 118, 6-(2-fluoro-4-(2-(methyl-d3)-2H-pyrazolo[3,4-b]pyridin-5-yl)benzyl)-6,7-dihydro-5H-pyrrolo[3,4-b]pyridin-5-one-7,7-d2]: at human mAChR M1 [1], the EC50 came out at 527 nM and the maximum response (Emax) turned out to be 66%. At human mAChR M1 [2], the half-maximal effective concentration (EC50) is at least 10000 nM and the Emax stood at 16%.
`[2H]C1([2H])c2ncccc2C(=O)N1Cc1c(F)cc(-c2ccc(Cl)c3nn(C)cc23)cc1F` [Compound 40, 6-(4-(7-chloro-2-methyl-2H-indazol-4-yl)-2,6-difluorobenzyl)-6,7-dihydro-5H-pyrrolo[3,4-b]pyridin-5-one-7,7-d2]: on human mAChR M1 [1], the EC50 was 233 nM and the maximum response (Emax) stood at 66%. Besides, at human mAChR M1 [2], the “Agonist Activity Human M1 EC50” value was “Inactive” and the Emax amounted to 1%.
Take `[2H]C1([2H])c2ncccc2C(=O)N1Cc1c(F)cc(-c2cn(C)c(=O)c3nn(C)cc23)cc1F` [Compound 79, 4-(3,5-difluoro-4-((5-oxo-5,7-dihydro-6H-pyrrolo[3,4-b]pyridin-6-yl-7,7-d2)methyl)phenyl)-2,6-dimethyl-2,6-dihydro-7H-pyrazolo[3,4-c]pyridin-7-one]: the concentration giving a half-maximal response (EC50) was 793 nM at human mAChR M1 [1] and at least 10000 nM at human mAChR M1 [2]. Moreover, the maximum response (Emax) at human mAChR M1 [1] was found to be 79%; at human mAChR M1 [2], 16%.
On to `[2H]C1([2H])c2ncccc2C(=O)N1Cc1ccc(-c2ccc(C)c3nn(C([2H])([2H])[2H])cc23)cc1F` [Compound 56, 6-(2-fluoro-4-(7-methyl-2-(methyl-d3)-2H-indazol-4-yl)benzyl)-6,7-dihydro-5H-pyrrolo[3,4-b]pyridin-5-one-7,7-d2], for which, on human mAChR M1 [1], the EC50 is 317 nM and the maximal effect (Emax) turned out to be 87%. Further, on human mAChR M1 [2], the “Agonist Activity Human M1 EC50” value is given as “Inactive” and the Emax is 5%.
On the same counts, the results for `[2H]C1([2H])c2ncccc2C(=O)N1Cc1ccc(-c2ccc(OCC3(C#N)CC3)c3nn(C)cc23)cc1F` [Compound 178, 1-(((4-(3-fluoro-4-((5-oxo-5,7-dihydro-6H-pyrrolo[3,4-b]pyridin-6-yl-7,7-d2)methyl)phenyl)-2-methyl-2H-indazol-7-yl)oxy)methyl)cyclopropane-1-carbonitrile] are 277 nM, 79%, “Inactive” and 9%.
`[2H]C1([2H])c2ncccc2C(=O)N1Cc1c(F)cc(-c2cccc3nn(C([2H])([2H])[2H])cc23)cc1F` [Compound 31, 6-(2,6-Difluoro-4-(2-(methyl-d3)-2H-indazol-4-yl)benzyl)-6,7-dihydro-5H-pyrrolo[3,4-b]pyridin-5-one-7,7-d2]: the EC50 at human mAChR M1 [1] was 263 nM; on human mAChR M1 [2] it was 8600 nM. Moreover, the values for the maximal response (Emax) on human mAChR M1 [1] and on human mAChR M1 [2] were 84% and 28%, respectively.
As for `[2H]C1([2H])c2ncccc2C(=O)N1Cc1c(F)cc(-c2cc3cn(C)nc3cc2F)cc1F` [Compound 4, 6-(2,6-difluoro-4-(6-fluoro-2-methyl-2H-indazol-5-yl)benzyl)-6,7-dihydro-5H-pyrrolo[3,4-b]pyridin-5-one-7,7-d2], at human mAChR M1 [1], the EC50 worked out at 1060 nM and the Emax came to 48%. For the same molecule, at human mAChR M1 [2], the “Agonist Activity Human M1 EC50” value is “Inactive” and the Emax was 2%.
On the same counts, the results for `[2H]C1([2H])c2ncccc2C(=O)N1Cc1c(F)cc(-c2cc(Cl)cc3nn(C)cc23)cc1F` [Compound 75, 6-(4-(6-chloro-2-methyl-2H-indazol-4-yl)-2,6-difluorobenzyl)-6,7-dihydro-5H-pyrrolo[3,4-b]pyridin-5-one-7,7-d2] are 626 nM, 55%, “Inactive” and 1%.
As to `[2H]C1([2H])c2ncccc2C(=O)N1Cc1c(F)cc(-c2ccc(OCCOC)c3nn(C)cc23)cc1F` [Compound 113, 6-(2,6-difluoro-4-(7-(2-methoxyethoxy)-2-methyl-2H-indazol-4-yl)benzyl)-6,7-dihydro-5H-pyrrolo[3,4-b]pyridin-5-one-7,7-d2], on human mAChR M1 [1], the concentration giving a half-maximal response (EC50) stood at 188 nM and the maximal response (Emax) is 75%. At human mAChR M1 [2], the EC50 worked out at 5870 nM and the Emax is 41%.
As to `[2H]C1([2H])c2ncccc2C(=O)N1Cc1c(F)cc(-c2ccc(C)c3nn(C)cc23)cc1Cl` [Compound 162, 6-(2-chloro-4-(2,7-dimethyl-2H-indazol-4-yl)-6-fluorobenzyl)-6,7-dihydro-5H-pyrrolo[3,4-b]pyridin-5-one-7,7-d2], on human mAChR M1 [1], the EC50 amounted to 435 nM and the maximal effect (Emax) was determined as 81%. Moreover, on human mAChR M1 [2], the “Agonist Activity Human M1 EC50” value is on record as “Inactive” and the maximum response (Emax) came to 2%.
On the same counts, the results for `[2H]C1([2H])c2ncccc2C(=O)N1Cc1c(F)cc(-c2c(F)ccc3nn(C)cc23)cc1F` [Compound 37, 6-(2,6-difluoro-4-(5-fluoro-2-methyl-2H-indazol-4-yl)benzyl)-6,7-dihydro-5H-pyrrolo[3,4-b]pyridin-5-one-7,7-d2] are 2300 nM, 64%, “Inactive” and 3%.
The matching figures for `[2H]C1([2H])c2ncccc2C(=O)N1Cc1ccc(-c2ccc3nn(C)cc3c2C)cc1F` [Compound 242, 6-(4-(2,4-dimethyl-2H-indazol-5-yl)-2-fluorobenzyl)-6,7-dihydro-5H-pyrrolo[3,4-b]pyridin-5-one-7,7-d2]: over 10000 nM, 43%, “Inactive” and 3%.
For `[2H]C1([2H])c2ncccc2C(=O)N1Cc1ccc(-c2cccc3nn(C([2H])([2H])[2H])cc23)cc1C(C)C` [Compound 234, 6-(2-isopropyl-4-(2-(methyl-d3)-2H-indazol-4-yl)benzyl)-6,7-dihydro-5H-pyrrolo[3,4-b]pyridin-5-one-7,7-d2], on human mAChR M1 [1], the 50% effective concentration (EC50) was at least 10000 nM and the maximum response (Emax) was determined as 42%. On human mAChR M1 [2], the “Agonist Activity Human M1 EC50” value is recorded as “Inactive” and the maximal effect (Emax) came out at 1%.
The matching figures for `[2H]C1([2H])c2ncccc2C(=O)N1Cc1c(F)cc(-c2cccc3nn(C([2H])([2H])[2H])cc23)cc1N(C)C` [Compound 230, 6-(2-(dimethylamino)-6-fluoro-4-(2-(methyl-d3)-2H-indazol-4-yl)benzyl)-6,7-dihydro-5H-pyrrolo[3,4-b]pyridin-5-one-7,7-d2]: at least 10000 nM, 38%, “Inactive” and 3%.
Consider `[2H]C1([2H])c2ncccc2C(=O)N1Cc1ccc(-c2cc(F)cc3nn(C)cc23)cc1F` [Compound 71, 6-(2-fluoro-4-(6-fluoro-2-methyl-2H-indazol-4-yl)benzyl)-6,7-dihydro-5H-pyrrolo[3,4-b]pyridin-5-one-7,7-d2], for which, on human mAChR M1 [1], the EC50 was 698 nM and the maximal effect (Emax) came to 75%. On human mAChR M1 [2], the “Agonist Activity Human M1 EC50” value is on record as “Inactive” and the maximum response (Emax) amounted to 1%.
